Patent US20200024246A1, “POGOSTONE DERIVATIVES AND METHODS OF USING THE SAME” (Hamyard Associates LLC, priority 2018, published 2020)
“Also recorded” adds a separate entry of the source. Like-named read-outs stand apart in the source and are kept apart here.

Tests used:
[1] = tested on: adult female Aedes aegypti; assay: Topical combination of Formula 13 with synthetic insecticides (FIGS. 6-9); format: in vivo; conditions: for 24-hr percentage mortality: 0.2 μL acetone, Formula 13 500 μg/mL, dibrom 10 μg/mL, thiamethoxam 100 μg/mL, permethrin 2.5 μg/mL, alone or in combination
Description: A low-dose concentration of Formula 13 (500 μg/mL) was applied in combination with chlorfenapyr (75 μg/mL), dibrom (10 μg/mL), thiamethoxam (100 μg/mL), and permethrin (2.5 μg/mL) to the pronotum of adult female Aedes aegypti in 0.2 μL of acetone. These concentrations were chosen as they produced little-to-no mortality at 24 hours after application. Knockdown (immobilization) was recorded at 1 hour after application and mortality was recorded at 24, 48, and 72 hours after initial application. These applications were run in parallel to a topical application of a combined mixture of 500 μg/mL Formula 13 and 75 μg/mL of chlorfenpayr to the pronotum of adult female mosquitoes. For this experiment, total of 25 mosquitoes were treated within each replicate, with a minimum of 3 replicates utilized for each treatment. Synergism was defined as the higher percentage mortality in the insecticidal combination of both Formula 13 and chlorfenapyr compared to each individual component applied by itself.

adult, female mosquitoes = assay: Topical application on adult female mosquitoes (24-h mortality, 1-h knockdown); format: in vivo, mosquito; conditions: for ED50: read-out: KD50 (ug/g mosquito); for LD50: read-out: LD50 (ug/g mosquito); for insecticidal properties compared with natural pogostone, natural pyrethrins or terpenoids: words, refers to Table 1
adult house flies [2] = assay: House fly feeding assay (choice assay, FIG. 5); format: in vivo; conditions: 15% w/w in fly food, total mortality at 5 days
From the text: Formulas 13, 17, 24, 26, 10, 27, and 29 and control (acetone and boric acid) were incorporated into 2 g of house fly food (1:1 dry milk and sucrose) at rate of 15%. Specifically, approximately 20-30 adult house flies ( ) were introduced into aquaria with a French square filled with de-ionized water. Cotton dental wicks were used to draw water up and present it to flies at the top of the French square. Compounds were introduced at a concentration of (15% w/w food) into 1:1 mixtures of evaporated milk powder and sucrose. MUSCALURE™, a potent house fly attractant/pheromone used in various house fly bait products, was also added to this mixture of bait and food at a concentration of 0.5% w/w food. Two grams of food mixed with compound was provided to house flies in each assay. Another 2 g of just fly food (no compound) was provided at the other end of the assay chamber to serve as untreated source of food. This was done to assess the ability of flies to feed on the treated food source (palatability). If acetone was used as the carrier throughout the experiment, the food was carefully stirred repeatedly to ensure evaporation so that no more acetone was present in the food. Total mortality was assessed at 5 days after introducing house flies into individual mason jars with food treated with different compounds.

adult house flies [3] = assay: Topical application of pogostone derivatives with PBO or plant essential oil on house flies; format: in vivo, house fly
Description: Combinations of select pogostone derivatives with select concentrations of PBO or plant essential oils was performed. […] Synergists were applied as a subsequent application directly after the application of pogostone derivatives. Concentrations of synergists (plant oils or PBO) were chosen that produced no mortality at 24 hours when applied alone.
To assess the ability of PBO to increase the toxicity of a wide variety of pogostone derivatives, PBO and the pogostone derivatives were applied in combination to the pronotum of house flies.
Finally, the potential of plant essential oils to synergize the effect of Formula 30 was assessed.

adult female mosquitoes = assay: whole plant or invertebrate; conditions: topical
Description: The first group of DHAA-based derivatives that were tested included Formula A2, Formula B3, Formula C3, and Formula D3. A solution of 0.5% or 1.5% of each of these compounds was applied to the mosquitoes, as described above. […] Acetone was used as a control.

house flies = assay: Topical application on house flies; conditions: for LD50 (ug/g fly): House Fly Toxicity, topical
[4] = Mosquito Knockdown Properties (1 hour), topical application
[5] = Mosquito Toxicity (24 hours), topical application to pronotum
[6] = house flies, topical, derivative alone or in combination with PBO

CC1(C)C(C=C(Cl)Cl)C1C(=O)OCc1cccc(Oc2ccccc2)c1 (racemic) [Permethrin, 3-phenoxybenzyl (1RS)-cis,trans-3-(2,2-dichlorovinyl)-2,2-dimethylcyclopropanecarboxylate]
24-hr percentage mortality [1]: 28%

COP(=O)(OC)OC(Br)C(Cl)(Cl)Br (centres unmarked) [Dibrom]
24-hr percentage mortality [1]: 11%

Cc1cc(O)c(C(=O)/C=C/C(C)C)c(=O)o1 [Formula 10]
ED50 (adult, female mosquitoes; [4]): > 1500 mg/kg
LD50 (adult, female mosquitoes; [5]): > 1500 mg/kg
mortality compared with boric acid (adult house flies [2]): performed better than boric acid

CC(C)C(=O)c1c(O)c2ccccc2oc1=O [Formula 19]
ED50 (adult, female mosquitoes; topical, 1 h): 384 mg/kg
LD50 (adult, female mosquitoes; topical, 24 h): 24.7 mg/kg
insecticidal properties compared with natural pogostone, natural pyrethrins or terpenoids (adult, female mosquitoes): possessed better insecticidal properties at least as well as natural pyrethrins
LD50 (adult house flies [3]; [6]): 1495 µg/g
1-hour Knockdown EC50 (μg/g mosquito) (adult female mosquitoes; mosquito, 1 hour): 384.5 μg/g mosquito
LD50 (adult female mosquitoes; 24 h, read-out: 24-hour Mortality LD50 (μg/g mosquito)): 25 mg/kg
LD50 (ug/g fly) (house flies): 1495 ug/g fly

O=C(CCc1ccccc1)c1c(O)c2ccccc2oc1=O [Formula 24]
ED50 (adult, female mosquitoes; topical, 1 h): > 1500 mg/kg
LD50 (adult, female mosquitoes; topical, 24 h): > 1500 mg/kg
mortality compared with boric acid (adult house flies [2]): performed similarly to boric acid

CCCCCCCCCCCC(=O)c1c(O)c2ccccc2oc1=O [Formula 26]
ED50 (adult, female mosquitoes; topical, 1 h): > 1500 mg/kg
LD50 (adult, female mosquitoes; topical, 24 h): > 1500 mg/kg
mortality compared with boric acid (adult house flies [2]): performed similarly to boric acid

O=C(c1c(O)c2ccccc2oc1=O)C1CC1 [Formula 29]
ED50 (adult, female mosquitoes; [4]): 613 mg/kg
LD50 (adult, female mosquitoes; [5]): 47.7 mg/kg
insecticidal properties compared with natural pogostone, natural pyrethrins or terpenoids (adult, female mosquitoes): possessed better insecticidal properties than natural pogostone
mortality compared with boric acid (adult house flies [2]): performed better than boric acid
LD50 (adult house flies [3]; [6]): 1761 µg/g
LD50 (ug/g fly) (house flies): 1761 ug/g fly

CC(C)C(=O)c1c(O)c2cc(F)ccc2oc1=O [Formula 30]
ED50 (adult, female mosquitoes; [4]): > 1500 mg/kg
LD50 (adult, female mosquitoes; [5]): 45.6 mg/kg
insecticidal properties compared with natural pogostone, natural pyrethrins or terpenoids (adult, female mosquitoes): possessed better insecticidal properties than natural pogostone
toxicity of Formula 30 in combination with cedarwood (Texas type) oil (CWT) (adult house flies [3]; 1% CWT, dose-response curves FIG. 11): significant increase in toxicity; also recorded: shifting the dose-response curve to the left
toxicity of Formula 30 in combination with PBO (adult house flies [3]; 1% PBO, dose-response curves FIG. 11): significant increase in toxicity; also recorded: shifting the dose-response curve to the left
LD50 (adult house flies [3]; [6]): 645 µg/g
LD50 (ug/g fly) (house flies): 645 ug/g fly
toxicity to house flies (house flies; words): extremely effective at killing house flies

O=C(c1c(O)c2ccccc2oc1=O)C(Cl)Cl [Formula 31]
ED50 (adult, female mosquitoes; [4]): > 1500 mg/kg
LD50 (adult, female mosquitoes; [5]): > 1500 mg/kg
LD50 (μg/g) (adult house flies [3]; [6]): >6,000 μg/g
LD50 (ug/g fly) (house flies): >6,000 ug/g fly

CN1COCN(Cc2cnc(Cl)s2)C1=N[N+](=O)[O-] [Thiamethoxam, 3-((2-chloro-5-thiazolyl)methyl)-5-methyl-4-nitroiminotetrahydro-1,3,5-oxadiazine]
24-hr percentage mortality [1]: 25.6%

CCOCn1c(-c2ccc(Cl)cc2)c(C#N)c(Br)c1C(F)(F)F [chlorfenapyr, 4-bromo-2-(4-chlorophenyl)-1-ethoxymethyl-5-trifluoromethylpyrrol-3-carbonitrile]
percentage mortality at 24 hour ([1]; chlorfenapyr 75 ug/mL, Formula 13 500 ug/mL, alone or combined, words): very low mortality
